In paper PMC7351617 (Journal of neurochemistry, 2020):

Tested on: rat adrenal chromaffin cells (native α3β4* / α3β2β4 nAChRs)

CC[C@H](C)[C@@H]1NC(=O)[C@@H]2CCCN2C(=O)[C@H](CO)NC(=O)[C@H](CCSC)NC(=O)[C@H](C)NC(=O)[C@H](CO)NC(=O)[C@@H]2CSSC[C@H](NC(=O)CN)C(=O)N[C@@H](CSSC[C@@H](C(N)=O)NC1=O)C(=O)N[C@@H](CO)C(=O)N[C@@H](Cc1c[nH]cn1)C(=O)N1CCC[C@H]1C(=O)N[C@@H](C(C)C)C(=O)N2 [TxID]
Hill slope: −1.1
inhibition of the ACh-evoked currents: ~ 97%
IC50 (36 h): 7 nM
ACh-evoked current amplitude in the presence of TxID (SD): −50 ± 24 pA
ACh-evoked current amplitude in the presence of TxID alone (SD): −45 ± 26 pA
ACh-evoked currents in the presence of TxID, % of controls (SD): 3 ± 1%
